In brackets after ≈: the same amount, converted by molar mass.
How the values were obtained:
Experiment in all cases: Cytotoxicity assay, MTT colorimetric method
Assay type in all cases: cell-based
MDA-MB-231 = MDA-MB-231 human breast cancer cell line; 72 hrs treatment; cell viability by MTT
Description: (§1) Human liver (HepG2 and Hep3B), breast (MCF-7 and MDA-MB-231), and lung (A549) cancer cell lines were propagated in RPMI-1640 medium supplement with 10% (v/v) FBS, 100 U/mL penicillin and 100 µg/mL streptomycin at 37°C in a humidified atmosphere of 5% CO2 and 95% air. The culturing medium is changed every three days. Upon confluency, cells were subcultured to confluency, and used for experiments. The experimental period is determined according to the aim of experiment.
(§2) Cytotoxicity is measured by the MTT colorimetric method. Cells were seeded at densities of 5,000 - 10,000 cells/well in 96-well tissue culture plates. On day two, cells are treated with test compounds for another 72 hrs. After drug treatment, attached cells were incubated with MTT (0.5 mg/mL) for 1 hr and subsequently solubilized in DMSO. The absorbency at 550 nm is then measured using a microplate reader. The IC50 is the concentration of agent that reduces the cell viability by 50% under the experimental conditions, and the cytotoxic compound, Doxorubicin, is used as a positive control.

Hep3B = Hep3B human liver cancer cell line; 72 hrs treatment; cell viability by MTT
Description: as §1, §2

A549 = A549 human lung cancer cell line; 72 hrs treatment; cell viability by MTT
Description: as §1, §2

MCF-7 = MCF-7 human breast cancer cell line, 72 hrs treatment, cell viability by MTT; for IC50: MCF7
Description: as §1, §2

HepG2 = HepG2 human liver cancer cell line; 72 hrs treatment; cell viability by MTT
Description: as §1, §2

Compound | IC50 MDA-MB-231 (MDA-MB-231) [µg/mL] | IC50 Hep3B (Hep3B) [µg/mL] | IC50 A549 (A549) [µg/mL] | IC50 MCF-7 (MCF-7) [µg/mL] | IC50 HepG2 (HepG2) [µg/mL] | IC50 (MDA-MB-231) [µg/mL] | IC50 (Hep3B) [µg/mL] | IC50 (A549) [µg/mL] | IC50 (MCF-7) [µg/mL] | IC50 (HepG2) [µg/mL]
COC1(c2cc(=O)c3c(C)cccc3o2)C=CC(=O)C=C1 [10b, 1'-methoxy-5-methylprotoflavonone] | 0.54 (≈ 1.91 µM) | 0.66 (≈ 2.34 µM) | 16.36 (≈ 58 µM) | 1.55 (≈ 5.49 µM) | 7.64 (≈ 27.1 µM) | – | – | – | – | –
COc1cccc2c1C(=O)c1c(O)c3c(c(O)c1C2=O)C[C@@](O)(C(=O)CO)C[C@@H]3O[C@H]1C[C@H](N)[C@H](O)[C@H](C)O1 [Doxorubicin, reference compound] | – | – | – | – | – | 0.08 (≈ 0.147 µM) | 0.36 (≈ 0.662 µM) | 0.21 (≈ 0.386 µM) | 0.43 (≈ 0.791 µM) | 0.29 (≈ 0.534 µM)
O=C1C=CC(O)(c2cc(=O)c3ccccc3o2)C=C1 [compound 8a, 2-(1-hydroxy-4-oxocyclohexa-2,5-dienyl)-4H-chromen-4-one] | – | – | – | – | – | 0.18 (≈ 0.708 µM) | 0.32 (≈ 1.26 µM) | 1.33 (≈ 5.23 µM) | 0.44 (≈ 1.73 µM) | 1.71 (≈ 6.73 µM)
COC1(c2cc(=O)c3ccccc3o2)C=CC(=O)C=C1 [compound 8b, 1'-methoxyprotoflavonoen] | – | – | – | – | – | 1.47 (≈ 5.48 µM) | 1.45 (≈ 5.41 µM) | > 20 | 2.14 (≈ 7.98 µM) | 10.9 (≈ 40.8 µM)
O=C1C=CC(O)(c2cc(=O)c3c(O)cccc3o2)C=C1 [compound 10a, 2-(1-hydroxy-4-oxocyclohexa-2,5-dienyl)-5-hydroxy-4H-chromen-4-one] | – | – | – | – | – | 0.18 (≈ 0.666 µM) | 0.35 (≈ 1.3 µM) | 1.37 (≈ 5.07 µM) | 0.93 (≈ 3.44 µM) | 1.34 (≈ 4.96 µM)
O=C1C=CC(O)(c2cc(=O)c3c(ccc4ccccc43)o2)C=C1 [compound 15a, 3-(1-hydroxy-4-oxocyclohexa-2,5-dienyl)-1H-benzo[f]chromen-1-one] | – | – | – | – | – | 0.12 (≈ 0.394 µM) | 0.09 (≈ 0.296 µM) | 0.55 (≈ 1.81 µM) | 0.2 (≈ 0.657 µM) | 1.08 (≈ 3.55 µM)
COC1(c2cc(=O)c3c(ccc4ccccc43)o2)C=CC(=O)C=C1 [compound 15b] | – | – | – | – | – | 0.37 (≈ 1.16 µM) | 0.35 (≈ 1.1 µM) | 8.2 (≈ 25.8 µM) | 0.86 (≈ 2.7 µM) | 3.16 (≈ 9.93 µM)
COc1cc(O)c2c(=O)cc(C3(O)C=CC(=O)C=C3)oc2c1 [compound 18a, 5-hydroxy-2-(1-hydroxy-4-oxocyclohexa-2,5-dienyl)-7-methoxy-4H-chromen-4-one] | – | – | – | – | – | 0.13 (≈ 0.433 µM) | 0.2 (≈ 0.666 µM) | 0.93 (≈ 3.1 µM) | 0.51 (≈ 1.7 µM) | 0.17 (≈ 0.566 µM)
O=C1C=CC(O)(c2cc(=O)c3c(O)cc(O)cc3o2)C=C1 [protoapigenone] | – | – | – | – | – | 0.41 (≈ 1.43 µM) | 0.65 (≈ 2.27 µM) | 3.96 (≈ 13.8 µM) | 1.07 (≈ 3.74 µM) | 2.32 (≈ 8.11 µM)

Source: EP1980248B1, “Composition for treating cancer cells and synthetic method for the same” (Kaohsiung Medical University, priority 2007, dated 2008)
